Laboratory results reported in patent US10544110B2, “Small molecule inhibitors of the nuclear translocation of androgen receptor for the treatment of castration-resistant prostate cancer” (University of Pittsburgh-Of the Commonwealth System of …, priority 2013, dated 2020).

Legend:
22Rv 1 xenograft tumors = assay: 22Rv1 xenograft tumor growth; type: in vivo; conditions: castrated SCID mice, daily IP 10 mg/kg and 75 mg/kg
Experimental: FIG. 11 is a graph showing the effect of compound JJ-450 at indicated concentrations on 22Rv 1 xenograft tumor volume. JJ-450 was injected i.p. daily.
22Rv 1 xenograft tumors were established in SCID mice by subcutaneous injection of 2×10^6 cells in Matrigel. Once the tumors reached ˜150 μL in volume, the mice were castrated and randomized into 3 groups for daily IP injection of vehicle (n=11), 10 mg/kg (n=11) and 75 mg/kg (n=11) groups. Injection of JJ-450 was initiated at time of castration. Tumor volumes were measured 3 times every week. […] Error bars, SEM.

[1] = system: AR transcriptional activity (PSA promoter activity); assay: PSA luciferase assay in C4-2-PSA-rl cells (Dual-Glo luciferase system); conditions: C4-2-PSA-rl cells
Experimental: C4-2-PSA-rl cells were seeded in 24-well plates such that they reached 75-80% cell monolayer density after 24 h. […] Each compound was tested in at least two independent experiments. Luciferase activity was assayed using the Dual-Luciferase® Reporter Assay System (Promega) using LMax II Microplate Reader (Molecular Devices). The luciferase assay results were acquired using SoftMax Pro5.45 software (Molecular Devices) and analyzed using GraphPad Prism. PSA6.1-luc activity was normalized to the Renilla luciferase activity. Relative luciferase activity was calculated as the quotient of androgen-induced PSA-firefly/Renilla luciferase activity. Since PSA promoter activity correlates to AR transcriptional activity, inhibition of AR will result in decreased PSA-luciferase activity.

LNCaP xenograft tumors = assay: LNCaP xenograft tumor growth; type: in vivo; conditions: castrated SCID mice, oral gavage 10 or 75 mg/kg or IP 10 mg/kg, started 2 weeks after castration
Experimental: FIG. 12 is a graph showing the effect of compound JJ-450 at indicated concentrations and administration route on LNCaP xenograft tumor volume. JJ-450 was administered 6 times, from Monday to Saturday, every week
LNCaP xenograft tumors were established in SCID mice by subcutaneous injection of 2×10^6 cells in Matrigel. Once the tumors reached ˜200 ul in volume, the mice were castrated and randomized into 4 groups: oral gavage of vehicle (n=6), oral gavage at 10 mg/kg (n=6), IP injection at 10 mg/kg (n=8), and oral gavage at 75 mg/kg (n=7) groups. Administration of JJ-450 was started 2 weeks after castration. Tumor volumes were measured twice every week. […] Error bars, SEM.

22Rv1 = assay: Effectiveness against androgen-dependent prostate cancer cell line 22Rv1; type: cell-based

Row | SMILES | 22Rv1 xenograft tumor growth (tumor volume) (22Rv 1 xenograft tumors) | IC50 ([1]; 24 h, 24 h treatment, 1 nM R1881, mean and SD of 2-6 independent experiments) [nM] | activity in PSA luciferase assay (in words) ([1]; up to 25 μM) | LNCaP xenograft tumor growth (tumor volume) (LNCaP xenograft tumors) | effectiveness against 22Rv1 (22Rv1)
1 | Cc1ccc(Cl)cc1N1CCN(C(=O)[C@@H]2C[C@@H]2c2ccc(F)cc2)CC1 (racemic) [JJ-450, (4-(5-Chloro-2-methylphenyl)piperazin-1-yl)((1RS,2SR)-2-(4-fluorophenyl)cyclopropyl)-methanone] | significantly inhibited tumor growth | 2700 ± 1100 | significantly more potent than 1 | significantly inhibited tumor growth | –
2 | CNC(=O)c1ccc(N2C(=S)N(c3ccc(C#N)c(C(F)(F)F)c3)C(=O)C2(C)C)cc1F [MDV3100, enzalutamide] | – | – | – | – | ineffective
